# Several values for one entry are separate records, joined by “and”; a condition that tells them apart may be missing. Identical values can stand only once.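 Grown in 96-well plates, cells were treated for 48 hours with each compound at five concentrations. Insufficient inhibition: endpoint recorded as highest concentration tested. The concentration for 50% growth inhibition is given as GI50. TGI is the concentration that stops growth completely.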 Where a SMILES comes first, the peptide text is derived from it. [ ]: non-standard residue; d: D form. The star is where a group is joined. NMeF = CN[CH](Cc1ccccc1)C(=O)O; NMeV = CN[CH](C(=O)O)C(C)C; Boc = CC(C)(C)OC(=O)*
# Tested on: SNB-75 CNS
# Assay: DTP human tumour cell line panel, 48 h
SMILES,TGI,GI50
O=C1C(CN2CCCCC2)CCC1CN1CCCCC1 (stereo unspecified),> 75.6 µM,–
c1ccc2c(c1)ccn2CCc1c[nH]c2ccccc12,> 10 µM,–
CC(C)[Si](OC1=C(C(=O)N(C)c2cccc(Cl)c2)CCCC1)(C(C)C)C(C)C,22.8 µM,–
COc1cc(/C=C(\C#N)C(N)=O)cc(Br)c1O,14.4 µM and > 100 µM,–
COc1cc(C(=O)N(Cc2cccnc2)C(=S)N(Cc2cccnc2)C(=O)c2cc(OC)c(OC)c(OC)c2)cc(OC)c1OC,56.7 µM,–
COc1cc(CNCc2cc(OC)c(OC)c(OC)c2)cc(OC)c1OC,> 10 µM,–
Oc1c(CN2CCOCC2)ccc2cccnc12,> 10 µM,–
CC1NC(=O)CC(c2ccccc2)N(N=O)C1c1ccccc1 (stereo unspecified),> 65.2 µM,–
CCOCc1nc2c(OC)cc(-c3nc4ccc(N5CCN(C)CC5)cc4[nH]3)c(OC)c2[nH]1,87.1 µM,–
O=C(N/N=C\c1cccc2c([N+](=O)[O-])cccc12)Nc1ccccc1,> 100 µM,–
CCCCN1C(=O)N(c2ccc(OCC)cc2)C2N(CCCC)C1C(C)(C)C2(C)C (stereo unspecified),> 100 µM,–
CON(C)C(=O)CNC(=O)OCC1c2ccccc2-c2ccccc21,> 100 µM,–
O=C(NNC(=S)Nc1cccc(Cl)c1)c1cc(-c2ccccc2)nc2ccccc12,66.5 µM,–
Cc1cn(C2CC(N(O)Cc3ccccc3)C(CO[Si](C)(C)C(C)(C)C)O2)c(=O)[nH]c1=O (stereo unspecified),> 100 µM and 29.8 µM,39 µM and 16.2 µM
CC(=O)OC(/C=C/c1ccccc1)=C(OC(C)C)/C1=C(\c2ccccc2)SCCCSC1=O,> 100 µM,–
Cc1ccc(-c2c(C#N)c(-c3ccc(Cl)cc3)c(C#N)c(=O)n2NS(=O)(=O)c2ccc(C)cc2)cc1,> 100 µM,–

SMILES,TGI,GI50
COc1cc(Cn2c3c(c4cc(O)ccc42)Cc2ccccc2C3=O)cc(OC)c1,58.5 µM,–
Cc1cc(S(=O)(=O)N=C2N(Cc3ccccc3)CCN2Cc2ccccc2)c(S)cc1Cl,> 100 µM,–
CCCN1CCC(=O)N(CCC(F)(F)C(F)(F)C(F)(F)C(F)(F)C(F)(F)C(F)(F)F)C1=S,> 100 µM,–
CSc1ccc2c(cc1=O)[C@@H](NC(=O)c1ccc(N)cc1)CCc1cc(O)c(O)c(O)c1-2,> 100 µM,–
CCOC(=O)CC1(C(=O)OCC)c2[nH]c3ccccc3c2CCN1Cc1ccccc1 (stereo unspecified),45.8 µM,–
O=Cc1c(C(=O)O)[nH]c(=O)[nH]c1=O,> 100 µM,–
N=C(N)c1ccc(C(NC(=O)CNS(=O)(=O)c2ccc3ccccc3c2)P(=O)(Oc2ccccc2)Oc2ccccc2)cc1 (stereo unspecified),> 100 µM,–
Nc1cc2[nH]c(=O)c(=O)[nH]c2cc1N,> 100 µM,–
O=C1C=C(C2=CC(=O)C(=O)c3ccccc32)c2ccccc2C1=O,60.1 µM,–
C(=Nc1ccc(-c2nc3ccccc3[nH]2)cc1)c1cccs1,> 100 µM,–
C1=CC2SSSC2C1 (stereo unspecified),> 100 µM,–
C[N+](C)(C)CC1CCCCCCCCCCC1=O (stereo unspecified),> 100 µM,–
CCN(CC)CCNc1nc2ccc([N+](=O)[O-])cc2[n+]([O-])n1,> 100 µM,–
Cn1c2c(c3ccccc31)CC1c3c(c4ccccc4n3C)CC21 (stereo unspecified),> 100 µM,–
O=P(Nc1ccc(Cl)cc1)(Oc1ccccc1)N(CCCl)CCCl (stereo unspecified),> 100 µM,–

# Tested on: ACHN renal
# Assay: DTP human tumour cell line panel, 48 h
SMILES,TGI,GI50
CCN(CC)C(=O)Cn1c(C)cc2ccccc21,> 100 µM,–
CC1(C)NC2C(=O)c3c([nH]c4ccccc34)[C@]3(C)CCC1CC23 (stereo partly specified),> 100 µM,–
COc1ccc2ccccc2c1/C=C/C(=O)c1ccccc1,11.1 µM,–
O=c1[nH]nc(-c2ccccc2)c2[nH]c3c4ccccc4ccc3c12,> 100 µM,–
C=CCCN1CCc2c([nH]c3ccccc23)C1C(=O)O (stereo unspecified),> 100 µM,–
O=C1C(CN2CCCCC2)CCC1CN1CCCCC1 (stereo unspecified),47.5 µM,–
c1ccc2c(c1)ccn2CCc1c[nH]c2ccccc12,> 10 µM,–
CC(C)[Si](OC1=C(C(=O)N(C)c2cccc(Cl)c2)CCCC1)(C(C)C)C(C)C,31.2 µM,–
COc1cc(C(=O)N(Cc2cccnc2)C(=S)N(Cc2cccnc2)C(=O)c2cc(OC)c(OC)c(OC)c2)cc(OC)c1OC,> 100 µM,–
COc1cc(CNCc2cc(OC)c(OC)c(OC)c2)cc(OC)c1OC,> 10 µM,–
Oc1c(CN2CCOCC2)ccc2cccnc12,> 10 µM,–
CCOCc1nc2c(OC)cc(-c3nc4ccc(N5CCN(C)CC5)cc4[nH]3)c(OC)c2[nH]1,> 100 µM,–
O=C(N/N=C\c1cccc2c([N+](=O)[O-])cccc12)Nc1ccccc1,27.3 µM,–
CCCCN1C(=O)N(c2ccc(OCC)cc2)C2N(CCCC)C1C(C)(C)C2(C)C (stereo unspecified),> 100 µM,–
CON(C)C(=O)CNC(=O)OCC1c2ccccc2-c2ccccc21,> 100 µM,–
O=C(NNC(=S)Nc1cccc(Cl)c1)c1cc(-c2ccccc2)nc2ccccc12,31.8 µM,–
Cc1cn(C2CC(N(O)Cc3ccccc3)C(CO[Si](C)(C)C(C)(C)C)O2)c(=O)[nH]c1=O (stereo unspecified),98.1 µM and 31.4 µM,–

SMILES,TGI,GI50
CC(=O)OC(/C=C/c1ccccc1)=C(OC(C)C)/C1=C(\c2ccccc2)SCCCSC1=O,> 100 µM,–
Cc1ccc(-c2c(C#N)c(-c3ccc(Cl)cc3)c(C#N)c(=O)n2NS(=O)(=O)c2ccc(C)cc2)cc1,> 100 µM,–
CCCN1CCC(=O)N(CCC(F)(F)C(F)(F)C(F)(F)C(F)(F)C(F)(F)C(F)(F)F)C1=S,> 100 µM,–
CSc1ccc2c(cc1=O)[C@@H](NC(=O)c1ccc(N)cc1)CCc1cc(O)c(O)c(O)c1-2,37.4 µM and 43.8 µM,–
CCOC(=O)CC1(C(=O)OCC)c2[nH]c3ccccc3c2CCN1Cc1ccccc1 (stereo unspecified),50.9 µM,–
CC(C)C(NC(=O)OC(C)(C)C)C(=O)N(C)C(Cc1ccccc1)C(=O)N(C)C(C(=O)O)C(C)C (stereo not drawn) (Boc-Val-[NMeF]-[NMeV]-OH; configuration not given here),71 µM and > 100 µM,23.1 µM and > 100 µM
O=Cc1c(C(=O)O)[nH]c(=O)[nH]c1=O,> 100 µM,–
N=C(N)c1ccc(C(NC(=O)CNS(=O)(=O)c2ccc3ccccc3c2)P(=O)(Oc2ccccc2)Oc2ccccc2)cc1 (stereo unspecified),> 100 µM,–
Nc1cc2[nH]c(=O)c(=O)[nH]c2cc1N,> 100 µM,–
O=C1C=C(C2=CC(=O)C(=O)c3ccccc32)c2ccccc2C1=O,> 100 µM,–
C(=Nc1ccc(-c2nc3ccccc3[nH]2)cc1)c1cccs1,> 100 µM,–
C1=CC2SSSC2C1 (stereo unspecified),> 100 µM,–
C[N+](C)(C)CC1CCCCCCCCCCC1=O (stereo unspecified),> 100 µM,–
CCN(CC)CCNc1nc2ccc([N+](=O)[O-])cc2[n+]([O-])n1,> 100 µM,–
Cn1c2c(c3ccccc31)CC1c3c(c4ccccc4n3C)CC21 (stereo unspecified),> 100 µM,–
O=P(Nc1ccc(Cl)cc1)(Oc1ccccc1)N(CCCl)CCCl (stereo unspecified),> 100 µM,–

# Tested on: LXFL 529 NSCLC
# Assay: DTP human tumour cell line panel, 48 h
row,SMILES,TGI
1,C=CCCN1CCc2c([nH]c3ccccc23)C1C(=O)O (stereo unspecified),> 100 µM
2,CCOC(=O)CC1(C(=O)OCC)c2[nH]c3ccccc3c2CCN1Cc1ccccc1 (stereo unspecified),> 100 µM
3,CC(C)C(NC(=O)OC(C)(C)C)C(=O)N(C)C(Cc1ccccc1)C(=O)N(C)C(C(=O)O)C(C)C (stereo not drawn) (Boc-Val-[NMeF]-[NMeV]-OH; configuration not given here),> 100 µM
4,C1=CC2SSSC2C1 (stereo unspecified),> 100 µM
5,O=P(Nc1ccc(Cl)cc1)(Oc1ccccc1)N(CCCl)CCCl (stereo unspecified),> 100 µM

# Tested on: SNB-19 CNS
# Assay: DTP human tumour cell line panel, 48 h
row,SMILES,TGI
1,CCN(CC)C(=O)Cn1c(C)cc2ccccc21,> 100 µM
2,COc1ccc2ccccc2c1/C=C/C(=O)c1ccccc1,12.4 µM
3,O=c1[nH]nc(-c2ccccc2)c2[nH]c3c4ccccc4ccc3c12,> 100 µM
4,C=CCCN1CCc2c([nH]c3ccccc23)C1C(=O)O (stereo unspecified),> 100 µM
5,O=C1C(CN2CCCCC2)CCC1CN1CCCCC1 (stereo unspecified),> 100 µM
6,c1ccc2c(c1)ccn2CCc1c[nH]c2ccccc12,> 10 µM
7,CC(C)[Si](OC1=C(C(=O)N(C)c2cccc(Cl)c2)CCCC1)(C(C)C)C(C)C,31 µM
8,COc1cc(/C=C(\C#N)C(N)=O)cc(Br)c1O,> 100 µM
9,COc1cc(C(=O)N(Cc2cccnc2)C(=S)N(Cc2cccnc2)C(=O)c2cc(OC)c(OC)c(OC)c2)cc(OC)c1OC,> 100 µM
10,COc1cc(CNCc2cc(OC)c(OC)c(OC)c2)cc(OC)c1OC,> 10 µM
11,Oc1c(CN2CCOCC2)ccc2cccnc12,> 10 µM
12,CC1NC(=O)CC(c2ccccc2)N(N=O)C1c1ccccc1 (stereo unspecified),> 91.3 µM
13,CCOCc1nc2c(OC)cc(-c3nc4ccc(N5CCN(C)CC5)cc4[nH]3)c(OC)c2[nH]1,> 100 µM
14,O=C(N/N=C\c1cccc2c([N+](=O)[O-])cccc12)Nc1ccccc1,36.5 µM
15,CCCCN1C(=O)N(c2ccc(OCC)cc2)C2N(CCCC)C1C(C)(C)C2(C)C (stereo unspecified),> 100 µM
16,CON(C)C(=O)CNC(=O)OCC1c2ccccc2-c2ccccc21,> 100 µM
17,O=C(NNC(=S)Nc1cccc(Cl)c1)c1cc(-c2ccccc2)nc2ccccc12,33.9 µM
18,Cc1cn(C2CC(N(O)Cc3ccccc3)C(CO[Si](C)(C)C(C)(C)C)O2)c(=O)[nH]c1=O (stereo unspecified),> 100 µM and 33.2 µM

row,SMILES,TGI
1,CC(=O)OC(/C=C/c1ccccc1)=C(OC(C)C)/C1=C(\c2ccccc2)SCCCSC1=O,> 100 µM
2,Cc1ccc(-c2c(C#N)c(-c3ccc(Cl)cc3)c(C#N)c(=O)n2NS(=O)(=O)c2ccc(C)cc2)cc1,> 100 µM
3,COc1cc(Cn2c3c(c4cc(O)ccc42)Cc2ccccc2C3=O)cc(OC)c1,> 100 µM
4,Cc1cc(S(=O)(=O)N=C2N(Cc3ccccc3)CCN2Cc2ccccc2)c(S)cc1Cl,> 100 µM
5,CCCN1CCC(=O)N(CCC(F)(F)C(F)(F)C(F)(F)C(F)(F)C(F)(F)C(F)(F)F)C1=S,> 100 µM
6,CSc1ccc2c(cc1=O)[C@@H](NC(=O)c1ccc(N)cc1)CCc1cc(O)c(O)c(O)c1-2,61 µM and > 100 µM
7,CCOC(=O)CC1(C(=O)OCC)c2[nH]c3ccccc3c2CCN1Cc1ccccc1 (stereo unspecified),> 100 µM
8,CC(C)C(NC(=O)OC(C)(C)C)C(=O)N(C)C(Cc1ccccc1)C(=O)N(C)C(C(=O)O)C(C)C (stereo not drawn) (Boc-Val-[NMeF]-[NMeV]-OH; configuration not given here),> 100 µM
9,O=Cc1c(C(=O)O)[nH]c(=O)[nH]c1=O,> 100 µM
10,N=C(N)c1ccc(C(NC(=O)CNS(=O)(=O)c2ccc3ccccc3c2)P(=O)(Oc2ccccc2)Oc2ccccc2)cc1 (stereo unspecified),> 100 µM
11,Nc1cc2[nH]c(=O)c(=O)[nH]c2cc1N,> 100 µM
12,O=C1C=C(C2=CC(=O)C(=O)c3ccccc32)c2ccccc2C1=O,53.2 µM
13,C(=Nc1ccc(-c2nc3ccccc3[nH]2)cc1)c1cccs1,> 100 µM
14,C1=CC2SSSC2C1 (stereo unspecified),> 100 µM
15,C[N+](C)(C)CC1CCCCCCCCCCC1=O (stereo unspecified),> 100 µM
16,CCN(CC)CCNc1nc2ccc([N+](=O)[O-])cc2[n+]([O-])n1,> 100 µM
17,Cn1c2c(c3ccccc31)CC1c3c(c4ccccc4n3C)CC21 (stereo unspecified),> 100 µM

# Reference: PubChem BioAssay (NCI)
